Results: PubChem BioAssay AID1963982 (Molecular Pharmacology Branch, DTP, NCI, 2024)

Tested on: 313798-341-R-J2-PDC spheroids, viability
Assay: Anticancer human tumor 313798-341-R-J2-PDC patient-derived cervical squamous cell carcinoma cell line growth inhibition [PI3K]
Details: spheroids with HUVEC and MSC; for IC50: curve of first compound; for viability, T/C: stronger effect = lower value; active = viability on the fitted dose curve at most 10% of control; inactive = the rest
How it was run: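 Three cell types, namely tumor cells, endothelial cells and mesenchymal stem cells, formed each spheroid. Combinations with four PI3K inhibitors were screened at clinically achievable concentrations decreasing by half-log, and spheroid viability was recorded.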

[1] = second compound 0.0316 µM, first compound 0.0316 µM
[2] = second compound 0.0316 µM, first compound 0.1 µM
[3] = second compound 0.0316 µM, first compound 0.316 µM
[4] = second compound 0.0316 µM, first compound 1 µM
[5] = second compound 0.0316 µM, first compound 3.16 µM
[6] = second compound 0.0316 µM, first compound 10 µM
[7] = second compound 0.1 µM, first compound 0.0316 µM
[8] = second compound 0.1 µM, first compound 0.1 µM
[9] = second compound 0.1 µM, first compound 0.316 µM
[10] = second compound 0.1 µM, first compound 1 µM
[11] = second compound 0.1 µM, first compound 3.16 µM
[12] = second compound 0.1 µM, first compound 10 µM
[13] = second compound 0.316 µM, first compound 0.0316 µM
[14] = second compound 0.316 µM, first compound 0.1 µM
[15] = second compound 0.316 µM, first compound 0.316 µM
[16] = second compound 0.316 µM, first compound 1 µM
[17] = second compound 0.316 µM, first compound 3.16 µM
[18] = second compound 0.316 µM, first compound 10 µM
[19] = second compound 1 µM, first compound 0.0316 µM
[20] = second compound 1 µM, first compound 0.1 µM
[21] = second compound 1 µM, first compound 0.316 µM
[22] = second compound 1 µM, first compound 1 µM
[23] = second compound 1 µM, first compound 3.16 µM
[24] = second compound 1 µM, first compound 10 µM
[25] = second compound 3.16 µM, first compound 0.0316 µM
[26] = second compound 3.16 µM, first compound 0.1 µM
[27] = second compound 3.16 µM, first compound 0.316 µM
[28] = second compound 3.16 µM, first compound 1 µM
[29] = second compound 3.16 µM, first compound 3.16 µM
[30] = second compound 3.16 µM, first compound 10 µM
[31] = second compound 10 µM, first compound 0.0316 µM
[32] = second compound 10 µM, first compound 0.1 µM
[33] = second compound 10 µM, first compound 0.316 µM
[34] = second compound 10 µM, first compound 1 µM
[35] = second compound 10 µM, first compound 3.16 µM
[36] = second compound 10 µM, first compound 10 µM
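Note: spheroids exposed to compounds for seven days.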
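Throughout, for viability, T/C: 100% = DMSO vehicle control viability.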

CC(C)NCC(C(=O)N1CCN(c2ncnc3c2C(C)CC3O)CC1)c1ccc(Cl)cc1 (stereo not drawn) + CC(Nc1ncnc2nc[nH]c12)c1cc2cccc(Cl)c2c(=O)n1-c1ccccc1
1.88 µM: IC50 (second compound 3.16 µM)
1.41 µM: IC50 (second compound 10 µM)
1.61 µM: IC50 (second compound 0.0316 µM)
1.87 µM: IC50 (second compound 0.1 µM)
inactive: viability, T/C [1] 114% | viability, T/C [2] 91.3% | viability, T/C [3] 81.7% | viability, T/C [4] 54% | viability, T/C [5] 40.1% | viability, T/C [6] 29.6% | viability, T/C [7] 102% | viability, T/C [8] 103% | viability, T/C [9] 90.2% | viability, T/C [10] 65.2% | viability, T/C [11] 36.9% | viability, T/C [12] 30.5% | viability, T/C [13] 94% | viability, T/C [14] 100% | viability, T/C [15] 84.2% | viability, T/C [16] 62% | viability, T/C [17] 36.9% | viability, T/C [18] 30% | viability, T/C [19] 97.3% | viability, T/C [20] 100% | viability, T/C [21] 89.9% | viability, T/C [22] 57.5% | viability, T/C [23] 44.2% | viability, T/C [24] 26.9% | viability, T/C [25] 96.7% | viability, T/C [26] 87.4% | viability, T/C [27] 89.8% | viability, T/C [28] 63.2% | viability, T/C [29] 39.1% | viability, T/C [30] 26.7% | viability, T/C [31] 91.3% | viability, T/C [32] 86.3% | viability, T/C [33] 75.9% | viability, T/C [34] 53.7% | viability, T/C [35] 39% | viability, T/C [36] 27.1%
1.8 µM: IC50 (second compound 1 µM)
1.72 µM: IC50 (second compound 0.316 µM)

CCCS(=O)(=O)Nc1ccc(F)c(C(=O)c2c[nH]c3ncc(-c4ccc(Cl)cc4)cc23)c1F + Cc1nc(NC(=O)N2CCCC2C(N)=O)sc1-c1ccnc(C(C)(C)C(F)(F)F)c1
5.85 µM: IC50 (second compound 0.0316 µM)
inactive: viability, T/C [1] 110% | viability, T/C [2] 92% | viability, T/C [3] 93.7% | viability, T/C [4] 103% | viability, T/C [5] 98% | viability, T/C [7] 100% | viability, T/C [8] 105% | viability, T/C [9] 98.7% | viability, T/C [10] 106% | viability, T/C [11] 90.7% | viability, T/C [13] 99.6% | viability, T/C [14] 111% | viability, T/C [15] 90.8% | viability, T/C [16] 105% | viability, T/C [17] 89.6% | viability, T/C [18] 10.9% | viability, T/C [19] 93.2% | viability, T/C [20] 90.1% | viability, T/C [21] 88.7% | viability, T/C [22] 83.9% | viability, T/C [23] 70.7% | viability, T/C [25] 62% | viability, T/C [26] 56.8% | viability, T/C [27] 56.5% | viability, T/C [28] 58.7% | viability, T/C [29] 49.8% | viability, T/C [31] 33.5% | viability, T/C [32] 32.5% | viability, T/C [33] 38.7% | viability, T/C [34] 36.4% | viability, T/C [35] 31.2% | viability, T/C [36] 5.01%
5.6 µM: IC50 (second compound 0.1 µM)
3.14 µM: IC50 (second compound 3.16 µM)
< 0.0316 µM: IC50 (second compound 10 µM)
active: viability, T/C [6] 8.19% | viability, T/C [12] 8.86% | viability, T/C [24] 6.27% | viability, T/C [30] 6.48%
4.52 µM: IC50 (second compound 1 µM)
5.65 µM: IC50 (second compound 0.316 µM)

Cn1nccc1Nc1nccc(-c2ccn(C(CO)c3ccc(Cl)c(F)c3)c(=O)c2)n1 (stereo not drawn) + CC(Nc1ccc2c(c1)OCCn1cc(N3C(=O)OCC3C(F)F)nc1-2)C(N)=O
0.219 µM: IC50 (second compound 1 µM)
inactive: viability, T/C (second compound 0.00316 µM, first compound 0.0316 µM) 98.2% | viability, T/C (second compound 0.00316 µM, first compound 0.1 µM) 96% | viability, T/C (second compound 0.00316 µM, first compound 0.316 µM) 90.5% | viability, T/C (second compound 0.00316 µM, first compound 1 µM) 97.2% | viability, T/C (second compound 0.00316 µM, first compound 3.16 µM) 103% | viability, T/C (second compound 0.00316 µM, first compound 10 µM) 100% | viability, T/C (second compound 0.01 µM, first compound 0.0316 µM) 98.7% | viability, T/C (second compound 0.01 µM, first compound 0.1 µM) 97.9% | viability, T/C (second compound 0.01 µM, first compound 0.316 µM) 87.9% | viability, T/C (second compound 0.01 µM, first compound 1 µM) 111% | viability, T/C (second compound 0.01 µM, first compound 3.16 µM) 121% | viability, T/C (second compound 0.01 µM, first compound 10 µM) 102% | viability, T/C [1] 109% | viability, T/C [2] 98.6% | viability, T/C [3] 102% | viability, T/C [4] 112% | viability, T/C [5] 115% | viability, T/C [6] 99.5% | viability, T/C [7] 98% | viability, T/C [8] 95% | viability, T/C [9] 93.6% | viability, T/C [10] 94.8% | viability, T/C [11] 89.4% | viability, T/C [12] 80.2% | viability, T/C [13] 77% | viability, T/C [14] 66.4% | viability, T/C [15] 65.7% | viability, T/C [16] 58.5% | viability, T/C [17] 66.8% | viability, T/C [18] 51.6% | viability, T/C [19] 59% | viability, T/C [20] 46.1% | viability, T/C [21] 46.8% | viability, T/C [22] 46.5% | viability, T/C [23] 52.7% | viability, T/C [24] 34.9%
> 10 µM: IC50 (second compound 0.00316 µM) | IC50 (second compound 0.01 µM) | IC50 (second compound 0.0316 µM) | IC50 (second compound 0.1 µM) | IC50 (second compound 0.316 µM)

Cn1nccc1Nc1nccc(-c2ccn(C(CO)c3ccc(Cl)c(F)c3)c(=O)c2)n1 (stereo not drawn) + CC(Nc1ncnc2nc[nH]c12)c1cc2cccc(Cl)c2c(=O)n1-c1ccccc1
> 10 µM: IC50 (second compound 0.0316 µM) | IC50 (second compound 0.1 µM) | IC50 (second compound 0.316 µM) | IC50 (second compound 1 µM) | IC50 (second compound 3.16 µM) | IC50 (second compound 10 µM)
inactive: viability, T/C [1] 92.4% | viability, T/C [2] 94.5% | viability, T/C [3] 90.1% | viability, T/C [4] 99.1% | viability, T/C [5] 91.3% | viability, T/C [6] 95.1% | viability, T/C [7] 100% | viability, T/C [8] 108% | viability, T/C [9] 97.7% | viability, T/C [10] 104% | viability, T/C [11] 105% | viability, T/C [12] 94.2% | viability, T/C [13] 114% | viability, T/C [14] 95.7% | viability, T/C [15] 90.2% | viability, T/C [16] 95% | viability, T/C [17] 110% | viability, T/C [18] 101% | viability, T/C [19] 102% | viability, T/C [20] 85.4% | viability, T/C [21] 107% | viability, T/C [22] 98.9% | viability, T/C [23] 93.5% | viability, T/C [24] 94.1% | viability, T/C [25] 97.6% | viability, T/C [26] 96% | viability, T/C [27] 94.1% | viability, T/C [28] 87.7% | viability, T/C [29] 89.9% | viability, T/C [30] 90.6% | viability, T/C [31] 98.8% | viability, T/C [32] 75.3% | viability, T/C [33] 77.8% | viability, T/C [34] 78.7% | viability, T/C [35] 85.8% | viability, T/C [36] 73.8%
